Measurements from patent US20120282377A1, “Methods and Formulations for Inhibiting Degradation of Photosensitive Sweeteners and Sweetener Enhancers” (priority 2011, published 2012).
Several values for one entry are separate records, joined by “and”; a condition that tells them apart may be missing. Identical values can stand only once.

Test: Monatin stability in lemon-lime beverage with EMIQ, visible light (Example 4)
Format: physicochemical
Details: for % Monatin remaining / Conc. of Monatin: with EMIQ
Protocol: The polyphenol enzymatically-modified isoquercitrin (EMIQ) was used to stabilize monatin (31 mg/L) in a lemon lime carbonated beverage formulation contained in either a regular (clear, colorless) PET bottle or a dark-colored PET bottle. The level of EMIQ in the samples was 7.5 PPM. A control formulation was used that contained no EMIQ. The samples were exposed to UV light or ambient indoor laboratory fluorescent lighting for up to 72 hours. UV light was administered in a UV chamber at 40° C. with approximately 400 Langley per 6 hours of exposure. The results listed below indicate that the monatin was very unstable in the control formulations with only 1.4% monatin remaining after 24 hours exposure to UV light. EMIQ provided protection from degradation of the monatin. When packaged in a dark-colored PET bottle approximately 89% monatin remained in the formulation after exposure to UV light for 24 hours. When exposed to ambient indoor laboratory lighting for 72 hours over 90% monatin remained in both clear and dark PET bottles containing the EMIQ polyphenol. All analyses were done by HPLC/MS.

[1] = dark-colored PET, Vis. exp. 0 hours
[2] = dark-colored PET, Vis. exp. 5 hours
[3] = dark-colored PET, Vis. exp. 7 hours
[4] = dark-colored PET, Vis. exp. 23 hours
[5] = dark-colored PET, Vis. exp. 28 hours
[6] = dark-colored PET, Vis. exp. 48 hours
[7] = regular PET, Vis. exp. 23 hours
[8] = regular PET, Vis. exp. 28 hours
[9] = regular PET, Vis. exp. 48 hours

- monatin remained (ambient indoor laboratory lighting for 72 hours, both clear and dark PET bottles containing the EMIQ polyphenol): over 90%
- % Monatin remaining [1]: 100%
- Conc. of Monatin [1]: 30930 ng/mL
- % Monatin remaining [2]: 97.5%
- Conc. of Monatin [2]: 30160 ng/mL
- % Monatin remaining [3]: 96.4% and 96.2%
- Conc. of Monatin [3]: 29810 ng/mL and 29760 ng/mL
- % Monatin remaining [4]: 93.3% and 93.1%
- Conc. of Monatin [4]: 28870 ng/mL and 28790 ng/mL
- % Monatin remaining [5]: 94.5%
- Conc. of Monatin [5]: 29220 ng/mL
- % Monatin remaining [6]: 92.1% and 92.4%
- Conc. of Monatin [6]: 28490 ng/mL and 28590 ng/mL
- % Monatin remaining (regular PET, Vis. exp. 0 hours): 100%
- Conc. of Monatin (regular PET, Vis. exp. 0 hours): 30930 ng/mL
- % Monatin remaining (regular PET, Vis. exp. 5 hours): 99.0% and 98.6%
- Conc. of Monatin (regular PET, Vis. exp. 5 hours): 30620 ng/mL and 30510 ng/mL
- % Monatin remaining (regular PET, Vis. exp. 7 hours): 97.2% and 97.4%
- Conc. of Monatin (regular PET, Vis. exp. 7 hours): 30060 ng/mL and 30120 ng/mL
- % Monatin remaining [7]: 94.1%
- Conc. of Monatin [7]: 29100 ng/mL
- % Monatin remaining [8]: 94.7% and 94.8%
- Conc. of Monatin [8]: 29270 ng/mL and 29320 ng/mL
- % Monatin remaining [9]: 92.7% and 92.5%
- Conc. of Monatin [9]: 28680 ng/mL and 28610 ng/mL
Compound: NC(CC(O)(Cc1c[nH]c2ccccc12)C(=O)O)C(=O)O (stereo not shown) [Monatin, 2-amino-4-carboxy-4-hydroxy-5-(3-indolyl)-pentanoic acid]
